{"source": "patent US20200157135A1", "about": "“SIDE-CHAIN MODIFIED ERGOSTEROL AND STIGMASTEROL DERIVATIVES AS LIVER X RECEPTOR MODULATORS” (Ospedale San Raffaele srl, priority 2017, published 2020)", "key": {"hLXRα": {"target": "T1, hLXRα (Homo sapiens, UniProt Q13133)", "T1 sequence (Q13133 209-447 limits assumed)": "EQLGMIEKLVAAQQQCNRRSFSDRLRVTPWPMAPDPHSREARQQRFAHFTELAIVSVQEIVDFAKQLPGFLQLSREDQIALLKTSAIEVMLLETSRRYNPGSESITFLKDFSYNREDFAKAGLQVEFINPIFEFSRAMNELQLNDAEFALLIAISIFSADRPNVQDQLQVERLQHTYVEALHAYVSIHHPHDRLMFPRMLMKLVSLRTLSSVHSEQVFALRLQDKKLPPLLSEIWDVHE", "experiment": "luciferase assay with GAL-4 chimeric hLXRα receptor in human embryonic kidney 293 cells", "format": "cell-based", "experimental": "(§1) All the synthesized compounds were first tested for their ability to activate LXRs by using luciferase assays with GAL-4 chimeric receptors. These were performed by co-transfecting plasmids encoding hLXRα- and β-binding domains fused to GAL-4, with the respective responsive element conjugated with the luciferase reporter gene into the human embryonic kidney 293 cells.\n(§2) Cell Culture and Co-transfection Assays. Human embryonic Kidney 293 cells (American Type Culture Collection) were cultured in Dulbecco's Modified Eagle's medium containing 10% of fetal bovine serum at 37° C. in humidified atmosphere of 5% CO2. HEK293 cells (4×10^4 cells per well) were transiently transfected in 48 well plate with the reporter plasmids pMH100X4-TK-luc (100 ng/well), Renilla (22 ng/well) together with 100 ng/well of pCMX-Gal4-RXR, pCMX-Gal4-PPAR-γ, pCMX-Gal4-PXR, pFA-CMV-FXR pCMX-Gal4-LXR-α or pCMX-Gal4-LXR-β plasmids using X-tremeGENE 9 DNA Transfection Reagent (Roche). Six hours after transfection, the cells were treated with the appropriate compound for 24 hours. Luciferase activities were analyzed by luciferase Dual Reporter Assay Systems (Promega) according to the manufacturer's protocol. GAL4-LXRs, GAL4-PPAR-γ, GAL4-RXR and TK-MHC100-luc plasmids were described in Villablanca et al.49 GAL4-PXR was a kind gift of Dr. Enrique Sainz (The Scripps Research Institute, La Jolla, USA). GAL4-FXR was a kind gift of Dr. Daniel Merk (Goethe-University Frankfurt am Main). The results obtained by luciferase assays and reported in Table 1 are from three to five independent experiments.\n(§3) Statistical analysis. Data are expressed as mean±SEM and were analyzed for significance by ANOVA with Dunnet's multiple comparison tests. The analysis was performed with Prism software. Data in Table 1 are expressed as EC50±SD. In particular, the standard deviations were obtained by calculating the mean of the EC50 of each experiment (three to five independent experiments). The efficacy (%) of the compounds was calculated as the percentage of the compound effect, in terms of LXRα or β activation, versus 8 μM of 22R—HC±SD. The analyses were performed with Prism software."}, "hLXRβ": {"target": "T2, hLXRβ (Homo sapiens, UniProt P55055)", "T2 sequence (P55055 222-460 limits assumed)": "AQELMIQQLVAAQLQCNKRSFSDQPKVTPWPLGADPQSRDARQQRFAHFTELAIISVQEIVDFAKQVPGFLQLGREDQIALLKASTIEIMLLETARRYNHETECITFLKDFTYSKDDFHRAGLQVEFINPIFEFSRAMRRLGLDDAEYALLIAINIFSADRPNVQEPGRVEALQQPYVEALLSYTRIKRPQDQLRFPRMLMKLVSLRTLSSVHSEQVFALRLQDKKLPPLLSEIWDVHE", "experiment": "luciferase assay with GAL-4 chimeric hLXRβ receptor in human embryonic kidney 293 cells", "format": "cell-based", "experimental": "as §1, §2, §3"}, "FASN": {"system": "FASN", "experiment": "qPCR of FASN expression in PMA-differentiated U937 cells", "format": "cell-based, human", "conditions": "U937 differentiated with PMA 72 h; 10 μM, 6 hours", "experimental": "(§4) U937 cells differentiated with PMA for 72 hours were treated with T0901317 (10 μM), 22R—HC (3) or with the tested compound (10 μM). […] (n=3/group). *p<0.05, **p<0.01, ***p<0.001.\nLXR agonists induce the expression of target genes, which are involved in cholesterol homeostasis, particularly in the reverse cholesterol transport pathway.43 Indeed, LXR agonists induce the expression of ABCA1 both in macrophages and in many tissues of the periphery such as the intestine.44 Moreover, ABCA1 regulates cholesterol efflux to APOAI acceptors.45 In the liver, LXR activation promotes the biosynthesis of fatty acids, a process also termed as de novo lipogenesis by inducing the expression of the master regulator of hepatic lipogenesis sterol-regulatory element-binding protein 1C (SREBP-1c), as well as several downstream genes in the SREBP-1c pathway, including steroyl CoA desaturase 1 (SCD1) and fatty acid synthase (FASN).43 Therefore, it was investigated, by quantitative PCR (qPCR), the expression of ABCA1, SREBP1c, FASN, and SCD1, by using RNA from monocytic U937 cells (FIG. 3) and from hepatic HepG2 cells (FIG. 4) stimulated with our compounds, the non-steroidal agonist T0901317 or the endogenous ligand 22R—HC (3) as positive controls. […] Then, the induction of genes involved in the lipogenesis using the hepatic cell line HepG2. 43,22 was evaluated. […]\nQuantitative Real-Time-PCR. […]"}, "SCD1": {"system": "SCD1", "experiment": "qPCR of SCD1 expression in PMA-differentiated U937 cells", "format": "cell-based, human", "conditions": "U937 differentiated with PMA 72 h; 10 μM, 6 hours", "experimental": "as §4\nLXR agonists induce the expression of target genes, which are involved in cholesterol homeostasis, particularly in the reverse cholesterol transport pathway.43 Indeed, LXR agonists induce the expression of ABCA1 both in macrophages and in many tissues of the periphery such as the intestine.44 Moreover, ABCA1 regulates cholesterol efflux to APOAI acceptors.45 In the liver, LXR activation promotes the biosynthesis of fatty acids, a process also termed as de novo lipogenesis by inducing the expression of the master regulator of hepatic lipogenesis sterol-regulatory element-binding protein 1C (SREBP-1c), as well as several downstream genes in the SREBP-1c pathway, including steroyl CoA desaturase 1 (SCD1) and fatty acid synthase (FASN).43 Therefore, it was investigated, by quantitative PCR (qPCR), the expression of ABCA1, SREBP1c, FASN, and SCD1, by using RNA from monocytic U937 cells (FIG. 3) and from hepatic HepG2 cells (FIG. 4) stimulated with our compounds, the non-steroidal agonist T0901317 or the endogenous ligand 22R—HC (3) as positive controls. […] Then, the induction of genes involved in the lipogenesis using the hepatic cell line HepG2. 43,22 was evaluated. […] Over the time, indeed, substantial efforts have been dedicated to the identification of LXR ligands able to turning on ABC transporter genes, without affecting lipogenic genes levels. This task is still one of the major challenge to the discovery of a clinically useful LXR modulator for atherosclerosis.\nQuantitative Real-Time-PCR. U937 cell line was differentiated in foam macrophages with phorbol 12-myristate 13-acetate (PMA) 10 ng/ml (Sigma) for 72 hours at 37° C. in […] at the concentration of 3×10^6 cells in 10 ml RPMI 10% FBS. At day 3 nuclear receptor ligands were added for 6 hours. HepG2 cells were treated with the ligands as described by Quinet et al.22 Total RNA was purified by TRIZOL (Invitrogen, Carlsbad, Calif., USA). Reverse transcription was performed incubating 2 μg of total RNA 1 hour at 42° C. with MLV-reverse transcriptase (Promega). Quantitative PCR was performed using Sybr Green Master Mix (Applied Biosystems) and real-time PCR (Viia 7 Real Time PCR System, Applied Biosystems). All PCR reactions were done in triplicate. The comparative Ct method was used to quantify transcripts that were normalized for human GAPDH. the following primer pairs were used: […]"}}}
{"smiles": "CC(C)CC[C@@H](O)[C@@H](C)[C@H]1CC[C@H]2[C@@H]3CC=C4C[C@@H](O)CC[C@]4(C)[C@H]3CC[C@]12C", "note": "[22R-HC (3), 22(R)-hydroxycholesterol, reference compound]", "values": [{"measurement": "EC50", "setting": "hLXRα; GAL4-hLXRα luciferase, HEK293, dose-response 32-1 μM, mean of three-five independent experiments, read-out: LXRα EC50 (μM) ± SD", "result": "6.71 ± 0.71", "unit": "µM"}, {"measurement": "Emax", "setting": "hLXRα; HEK293, 24 h, read-out: LXRα Efficacy (%) ± SD", "result": 100, "unit": "%"}, {"measurement": "EC50", "setting": "hLXRβ; GAL4-hLXRβ luciferase, HEK293, dose-response 32-1 μM, mean of three-five independent experiments, read-out: LXRβ EC50 (μM) ± SD", "result": "4.75 ± 0.12", "unit": "µM"}, {"measurement": "Emax", "setting": "hLXRβ; HEK293, 24 h, read-out: LXRβ Efficacy (%) ± SD, % of compound effect versus 8 μM of 22R-HC", "result": 100, "unit": "%"}, {"measurement": "FASN mRNA levels", "setting": "FASN", "result": "did not induce up-regulation of FASN and SCD1 transcripts"}, {"measurement": "SCD1 expression", "setting": "SCD1", "result": "did not induce up-regulation of FASN and SCD1 transcripts"}]}
